Results published in patent publication US20090247554A1, “KINASE INHIBITORS” (TAKEDA SAN DIEGO, INC., priority 2006, published 2009).

Biological target: T1, Aurora A Kinase (Homo sapiens, UniProt O14965)
T1 sequence (O14965 1-403): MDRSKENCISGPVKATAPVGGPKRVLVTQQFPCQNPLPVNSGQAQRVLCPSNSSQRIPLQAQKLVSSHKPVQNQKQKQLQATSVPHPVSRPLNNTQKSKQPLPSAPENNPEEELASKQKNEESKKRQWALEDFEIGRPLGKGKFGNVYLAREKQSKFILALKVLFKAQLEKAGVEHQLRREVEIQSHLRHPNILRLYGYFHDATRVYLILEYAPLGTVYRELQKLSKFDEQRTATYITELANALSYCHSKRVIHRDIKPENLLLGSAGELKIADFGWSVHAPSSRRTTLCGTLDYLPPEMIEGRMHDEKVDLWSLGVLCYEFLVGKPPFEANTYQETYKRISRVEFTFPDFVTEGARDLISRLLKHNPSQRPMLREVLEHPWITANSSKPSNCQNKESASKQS
Experiment: Determination of inhibition of AIK (Aurora A kinase) by direct fluorescence polarization (IMAP)
Assay type: biochemical
Details: read-out: IC50 of Exemplified Compounds Against Aurora A Kinase
Description: A. Determination of Inhibition of AIK
The inhibitory properties of compounds relative to AIK may be determined by the Direct Fluorescence Polarization detection method (FP) using a Greiner small volume black 384-well-plate format under the following reaction conditions: 50 mM Hepes pH 7.3, 10 mM MgCl2, 10 mM NaCl, 1 mM DTT, 0.01% Brij35, 100 nM Fluorescein-LRRASLG peptide (provided by SYNPEP), 5% DMSO, 2.5 uM ATP. Detection of the reaction product is performed by addition of IMAP binding reagent (Molecular Devices). Reaction product may be determined quantitatively by FP using an Analyst HT plate reader (Molecular Devices) with an excitation wavelength at 485 nm and emission at 530 nm and using a Fluorescein 505 dichroic mirror.
The assay reaction may be initiated as follows: 2 ul of (3×) 300 nM Fl-Peptide/7.5 uM ATP was added to each well of the plate, followed by the addition of 2 ul of (3×) inhibitor (2.5 fold serial dilutions for 11 data points for each inhibitor) containing 15% DMSO. 2 ul of (3×) 7.5 nM AIK solution may be added to initiate the reaction (final enzyme concentration was 2.5 nM for AIK). The reaction mixture may then be incubated at room temperature for 45 min, and quenched and developed by addition of 20 ul of 1 to 400 diluted IMAP binding reagent in 1× proprietary IMAP binding buffer. Fluorescence polarization readings of the resulting reaction mixtures may be measured after a 60-minute incubation at room temperature.
IC50 values may be calculated by non-linear curve fitting of the compound concentrations and fluorescent polarization values to the standard IC50 equation.

IC50, ≤ 50 nM:
CCS(=O)(=O)n1ccc2ccc(-c3nc(Nc4cc(C)[nH]n4)c4cc(C)sc4n3)cc21 [Example 3, 2-(1-(ethylsulfonyl)-1H-indol-6-yl)-6-methyl-N-(5-methyl-1H-pyrazol-3-yl)thieno[2,3-d]pyrimidin-4-amine]
CCS(=O)(=O)n1cc(CN(C)C)c2ccc(-c3nc(Nc4cc(C)[nH]n4)c4cc(C)sc4n3)cc21 [Example 4, 2-(3-((dimethylamino)methyl)-1-(ethylsulfonyl)-1H-indol-6-yl)-6-methyl-N-(5-methyl-1H-pyrazol-3-yl)thieno[2,3-d]pyrimidin-4-amine]
CCS(=O)(=O)n1ccc2ccc(-c3nc(Nc4cc(C)[nH]n4)c4cscc4n3)cc21 [Example 6, [2-(1-Ethanesulfonyl-1H-indol-6-yl)-thieno[3,4-d]pyrimidin-4-yl]-(5-methyl-1H-pyrazol-3-yl)-amine]
Cc1cc(Nc2nc(Sc3ccc(NC(=O)C4CC4)cc3)nc3sc(C)cc23)n[nH]1 [Example 8, N-(4-(6-Methyl-4-(5-methyl-1H-pyrazol-3-ylamino)thieno[2,3-d]pyrimidin-2-ylthio)phenyl)cyclopropanecarboxamide]
CCS(=O)(=O)c1cccc(-c2nc(Nc3cc(C)[nH]n3)c3cc(C)sc3n2)c1 [Example 7, 2-(3-(ethylsulfonyl)phenyl)-6-methyl-N-(5-methyl-1H-pyrazol-3-yl)thieno[2,3-d]pyrimidin-4-amine]
CCS(=O)(=O)c1cccc(-c2nc(Nc3cc(C)[nH]n3)c3cscc3n2)c1 [Example 5, [2-(3-Ethanesulfonyl-phenyl)-thieno[3,4-d]pyrimidin-4-yl]-(5-methyl-1H-pyrazol-3-yl)-amine]
